# According to paper PMC6747274, “Multifunctional Peptides from Spanish Dry-Cured Pork Ham: Endothelial Responses and Molecular Modeling Studies” (International Journal of Molecular Sciences, 2019):
# “And” between values parts separate entries of the source, which are not always exact repeats. Identical values can stand only once. “Also recorded” adds a separate entry of the source. Where no end group is shown, it is not given here.
# Columns and labels:
# BAX mRNA, EA.hy926 cells = test: BAX mRNA expression by RT-PCR in oxidative conditions; type: cell-based, human; settings: 300 µM H2O2 alone, 24 h; p = 0.02
# Experimental: (§1) EA.hy926 were seeded in six-well plates at 0.25 × 10^6 cells/well in DMEM supplemented with 5% FBS. Cells were treated with 300 µM of each peptide for 16 h. Then, 100 ng/mL TNF-α or 300 µM H2O2 were added for an additional 6 h or 24 h, respectively.
# Total RNA was extracted from EA.hy926 cells using 300 µL Trisure™ (Bioline, Taunton, MA, USA) reagent and Direct-zol™ RNA MiniPrep (Zymo Research Irvine, Irvine, CA, USA) according to the manufacturer’s protocol. Total RNA was reverse-transcribed into complementary DNA (Sensifast cDNATM Synthesis kit, Bioline, Taunton, MA, USA). The mRNA levels of the target genes were quantified by RT-PCR using SensiFAST SYBER Hi-ROX Kit (Bioline, Taunton, MA, USA) with StepOnePlus Real-Time PCR System (Applied Biosystems, Foster City, CA, USA). Briefly, 5 µL of 1:5 diluted cDNA was added to the qPCR reaction containing 10 μL 2X SensiFAST Mix and 400 nM of each primer in a total volume of 20 μL. […]
# (§2) The relative quantification of gene expression was determined by the comparative fold change […] method. […]
# [1] = tested on: IL-6 mRNA, EA.hy926 cells; test: IL-6 mRNA expression by RT-PCR in EA.hy926 cells; type: cell-based, human
# Experimental: (§3) EA.hy926 cells, the hybrid human umbilical vein endothelial cell line, were obtained from the American Type Culture Collection (ATCC® CRL2922™, Rockville, MD, USA). Cells were cultured in high glucose Dulbecco’s Modified Eagle’s Medium (DMEM), containing 10% heat-inactivated fetal bovine serum (FBS, Biowest, Riverside, CA, USA) and 50 U/mL of penicillin and 50 µg/mL streptomycin (Sigma Aldrich Chemical Co., Saint Louis, MO, USA). Cells were grown in 5% CO2 in a humidified air incubator at 37 °C. Subculture was performed when 90% confluence was reached.
# as §1
# (§4) Total RNA was extracted from EA.hy926 cells using 300 µL Trisure™ (Bioline, Taunton, MA, USA) reagent and Direct-zol™ RNA MiniPrep (Zymo Research Irvine, Irvine, CA, USA) according to the manufacturer’s protocol. […] The mRNA levels of the target genes were quantified by RT-PCR using SensiFAST SYBER Hi-ROX Kit (Bioline, Taunton, MA, USA) with StepOnePlus Real-Time PCR System (Applied Biosystems, Foster City, CA, USA). […]
# as §2
# EA.hy926 cells = test: Annexin V / propidium iodide apoptosis and necrosis by FACS; type: cell-based, human; settings: 300 µM H2O2 alone, three independent experiments, mean ± SD
# Experimental: as §1
# ApoScreen Annexin V Apoptosis Kit-FITC (Southern Biotech, Birmingham, AL, USA) was used to detect the apoptosis rate. After the co-incubation of synthetic peptides and 300 µM H2O2, 0.4 × 10^6 cells were detached and washed in cold PBS, then resuspended in 100 µL Annexin V binding buffer and treated following the manufacturer’s protocol. Annexin V-fluorescein isothiocyanate (FITC) binding was assessed in FL1 channel simultaneously with propidium iodide (FL2 channel). This test discriminates among intact cells (FITC−/PI−), apoptotic cells (FITC+/PI−), and necrotic cells (FITC+/PI+). Assays were performed in triplicate (Table S1).
# [2] = tested on: protein carbonylation, EA.hy926 cells; test: Protein carbonylation (Oxyblot immunoblotting); type: cell-based, human; settings: 300 µM H2O2 alone, 30 min
# Experimental: Protein carbonyl content is the most general and well-used biomarker of severe oxidative protein damage. Cel ls were treated with synthetic pepti des for 16 h before adding 300 µM H2O2 and leaving for additional 30 min. Protein carbonyl groups level s wer e determined by immuno blotting using the Oxyblot Protein Oxidation Detecti on Kit (Millipore Merck, Temecul a, CA, USA) according to the manufacturer’s protocol. PVDF membranes were blocked with 1% BSA in PBS–0.05% Tween 20 (v/v) (PBS-T) for 1 h at room temperature. The blots were incubated overnight at 20 °C with the polyclonal antibody. Subsequently, blots were washed (3–5 times) with PBS-T and incubated with goat anti-rabbit IgG/HRP c onjugate (1∶300 dilution in PBS/BSA) (Sigma-Al drich Chemical Co., Saint Louis, MO, USA) for 1 h at room temperature. […] In this condition, no signal was detected in the PVDF membr anes (data no t shown). The e mitted chemiluminescent signals wer e detected using a di gital imaging system (Im ageQuant LAS500, Thermo FisherScientific Inc., Rockford, IL, USA) after automatic exposition time. Quantitation of the densitometry plots for chemiluminescence detecti on was c arried out using ImageJ software for the analysis of 1D gels. Peaks were drawn from the di stinct western-blot bands, the area were calculated and normalized to co ntrol conditions.
# [3] = tested on: eNOS mRNA, EA.hy926 cells; test: eNOS mRNA expression by RT-PCR in EA.hy926 cells; type: cell-based, human
# Experimental: as §3, §1
# (§5) Total RNA was extracted from EA.hy926 cells using 300 µL Trisure™ (Bioline, Taunton, MA, USA) reagent and Direct-zol™ RNA MiniPrep (Zymo Research Irvine, Irvine, CA, USA) according to the manufacturer’s protocol. Total RNA was reverse-transcribed into complementary DNA (Sensifast cDNATM Synthesis kit, Bioline, Taunton, MA, USA). The mRNA levels of the target genes were quantified by RT-PCR using SensiFAST SYBER Hi-ROX Kit (Bioline, Taunton, MA, USA) with StepOnePlus Real-Time PCR System (Applied Biosystems, Foster City, CA, USA). Briefly, 5 µL of 1:5 diluted cDNA was added to the qPCR reaction containing 10 μL 2X SensiFAST Mix and 400 nM of each primer in a total volume of 20 μL.
# (§6) Specific and validated primers for human glyceraldehyde-3-phosphate dehydrogenase (GADPH), intercellular adhesion marker-1 (ICAM-1), vascular cell adhesion marker-1 (VCAM-1), endothelial nitric oxide synthase (eNOS), interleukin 6 (IL-6), catalase, SOD (Super Oxide Dismutase), NADPH (Nicotinamide Adenine Dinucleotide Phosphate oxidase) and Bax (proapoptosis regulator) genes were used (Sigma-Aldrich Chemical Co., Saint Louis, MO, USA). […]
# as §2
# [4] = tested on: inflammatory markers (IL-6 and eNOS); settings: spontaneous hypertensive rats, DNA microarray; cited from earlier work
# Description: In fact, multifunctional peptides interfere with more than one biological pathway, such as NO production, oxidative stress, and inflammation. […] Our interest in the use of an in vitro model of endothelial dysfunction was to further understand the reg ...
# human ACE = human ACE (Homo sapiens, UniProt P12821); test: Human ACE inhibition assay (lysate of ACE-transfected EA.hy926 cells, HHL substrate, HPLC)
# human ACE, sequence (P12821 30-1306): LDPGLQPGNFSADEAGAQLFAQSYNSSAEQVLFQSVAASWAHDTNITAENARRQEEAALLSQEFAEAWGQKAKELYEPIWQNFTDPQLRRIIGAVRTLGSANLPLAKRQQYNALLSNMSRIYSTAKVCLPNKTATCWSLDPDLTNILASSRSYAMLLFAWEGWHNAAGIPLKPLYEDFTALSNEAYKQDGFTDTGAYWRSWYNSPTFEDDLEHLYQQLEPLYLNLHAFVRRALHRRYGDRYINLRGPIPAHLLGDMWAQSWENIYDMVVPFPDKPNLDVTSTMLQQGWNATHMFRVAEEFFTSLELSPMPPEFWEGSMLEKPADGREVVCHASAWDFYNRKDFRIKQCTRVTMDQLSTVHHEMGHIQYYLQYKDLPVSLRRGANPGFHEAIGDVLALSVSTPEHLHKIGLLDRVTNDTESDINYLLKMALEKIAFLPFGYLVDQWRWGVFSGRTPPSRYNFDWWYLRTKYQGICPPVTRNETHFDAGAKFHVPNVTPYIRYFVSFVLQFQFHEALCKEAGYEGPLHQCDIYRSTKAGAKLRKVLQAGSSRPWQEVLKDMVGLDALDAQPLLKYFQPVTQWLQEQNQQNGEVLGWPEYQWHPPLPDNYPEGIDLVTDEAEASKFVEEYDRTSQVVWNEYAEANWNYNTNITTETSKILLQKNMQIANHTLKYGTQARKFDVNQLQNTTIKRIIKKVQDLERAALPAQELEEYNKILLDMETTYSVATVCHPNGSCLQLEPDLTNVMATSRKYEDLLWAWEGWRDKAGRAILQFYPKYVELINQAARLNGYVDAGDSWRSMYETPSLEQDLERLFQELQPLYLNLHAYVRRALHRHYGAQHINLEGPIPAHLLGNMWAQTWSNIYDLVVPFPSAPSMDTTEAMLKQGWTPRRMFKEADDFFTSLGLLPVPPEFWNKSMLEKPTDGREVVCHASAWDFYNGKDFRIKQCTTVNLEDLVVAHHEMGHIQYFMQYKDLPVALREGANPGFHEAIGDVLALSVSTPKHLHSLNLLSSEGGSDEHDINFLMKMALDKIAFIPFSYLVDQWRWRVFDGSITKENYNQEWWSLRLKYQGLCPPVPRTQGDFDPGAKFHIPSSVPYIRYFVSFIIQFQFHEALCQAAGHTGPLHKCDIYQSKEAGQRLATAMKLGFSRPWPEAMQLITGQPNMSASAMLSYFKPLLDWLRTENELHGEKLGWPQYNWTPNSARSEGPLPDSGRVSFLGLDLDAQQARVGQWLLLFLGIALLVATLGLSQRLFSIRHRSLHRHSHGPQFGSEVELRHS
# [5] = tested on: ICAM-1 mRNA, EA.hy926 cells; test: ICAM-1 mRNA expression by RT-PCR in EA.hy926 cells; type: cell-based, human; settings: 100 ng/mL TNF-α alone, 6 h; p < 0.05
# Experimental: as §3, §1, §4, §2
# [6] = tested on: ICAM-1 surface expression, EA.hy926 cells; test: ICAM-1 surface expression by flow cytometry (MFI); type: cell-based, human
# Experimental: as §3, §1
# To measure adhesion molecule content in human endothelial cells by flow cytometry, the cell monolayer was detached and fixed before immunofluorescence labelling. The following antibodies were used per sample: 20 µL anti-ICAM-1/CD54-phycoerythrin (PE) (clone HA58, BD Biosciences, Franklin Lakes, NJ, USA) and 5 µL anti-VCAM-1/CD106-PerCP-Cy5.5 (clone 51–10C9; BD Biosciences, San Jose, CA, USA), according to the manufacturer’s protocol. Stained cells (10,000 events) were examined by flow cytometry (FACS Calibur, Becton Dickinson, Mountain View, CA, USA) in a simultaneous two-color analysis with FL2 (PE) and FL3 (PerCP-Cy5.5) channels. Markers were set according to the negative controls to quantify the percentage of positively stained cells. Mean Fluorescence Intensity (MFI) was calculated for each antigen (MFI of total stained cells-MFI of negative control cells).
# [7] = tested on: VCAM-1 mRNA, EA.hy926 cells; test: VCAM-1 mRNA expression by RT-PCR in EA.hy926 cells; type: cell-based, human; settings: 100 ng/mL TNF-α alone, 6 h; p < 0.05
# Experimental: as §3, §1, §5, §6, §2
# [8] = tested on: VCAM-1 surface expression, EA.hy926 cells; test: VCAM-1 surface expression by flow cytometry; type: cell-based, human; settings: 100 ng/mL TNF-α alone
# Experimental: as §3, §1
# To measure adhesion molecule content in human endothelial cells by flow cytometry, the cell monolayer was detached and fixed before immunofluorescence labelling. […] Markers were set according to the negative controls to quantify the percentage of positively stained cells. Mean Fluorescence Intensity (MFI) was calculated for each antigen (MFI of total stained cells-MFI of negative control cells).
# [9] = tested on: ICAM-1 protein, EA.hy926 cells; test: Intracellular ICAM-1 protein by western blot; type: cell-based, human; settings: 100 ng/mL TNF-α alone
# Experimental: as §1
# Supplementary Material and Methods
# 1.1. Human ACE Inhibitio n Assa y
# Before transfection, the endothelial ACE expressio n level was very low and the p roduct of the enzymatic reaction undete ctable, and so a recombinant construct e ncodi ng the Myc-Tag fused to the ACE ge ne was used. T o overexpress the ACE enzyme, EA.hy926 cel ls were seeded in 24-well plates at 80,000 cells/well and transiently transfec ted with a human Ace ORF mammali an expression plasmid (Sinobiological, Beijing, China) using trans-it X2 reagent ( Myrus®, Madi son, […]
# Wisconsin, USA). […] The effi ciency of […]
# transfecti on was checked by immunofluorescence. Briefly, 48 h post-transfection, cells were fixed with 4% paraformaldehyd e in culture medi um for 15 min at room temperatur e, blocked with 1% bo vine seru m albumin (BSA) in phosph ate buffer for 30 min followed by 0.2% sapo nin for 30 min to permeabil ize the membr ane. […]
# The mRNA level s of the target genes (ICAM-1, VCAM-1, IL-6, eNOS, SOD, catal ase, NADPH, BAX) were quantified by RT-PCR using Se nsiFAST SYBER Hi-ROX Kit (Bioline, Taunton, USA) with StepOnePlus Real-Time PCR Sy stem (Appl ied Bi osystems, Foster City, CA, USA) using speci fi c and vali dated pri mers (Si gma-Al drich Chemical Co., Saint Louis, MO, USA).
# The tetr azolium assay (MTT) was used to estimate the cel l viability in the presence of synthetic pepti des (up to 600 µM) and 300 µM H2O2. […] The formazan crystals formed in the intact cel ls were dissol ved in 200 µL dimethyl sulfoxide (DMSO) for 30 min and the absorbance was measured in a micro plate reader at 570 nm and 620 nm of reference. Results wer e calculated as cel l viability (%) = average optic density (OD) of wells/ave rage OD of control wells. […]
# [10] = 100 ng/mL TNF-α alone, 6 h, p < 0.05
compound,measurement,setting,value
"OO [H2O2, reference compound]",BAX expression increase,"BAX mRNA, EA.hy926 cells",1.5 fold
same,IL-6 mRNA expression upregulation,"[1]; 300 µM H2O2 alone, 24 h, p = 0.001",1.84 fold
same,"Necrosis (AnV+/PI+), % cells",EA.hy926 cells; p = 0.01 vs control (1.45 ± 0.24),18.56 ± 3.38% and 18%
same,"Apoptosis (AnV+/PI-), % cells",EA.hy926 cells; p = 0.03 vs control (0.90 ± 0.36),10.37 ± 1.33% and 10%
same,protein carbonylation level,[2],significantly increased
same,eNOS mRNA expression increase,"[3]; 300 µM H2O2 alone, 24 h, p = 0.01",3.3 fold
"Ile-Pro-Pro [IPP, milk-derived peptide]",inflammatory markers (IL-6 and eNOS),[4],decrease in inflammatory markers (IL-6 and eNOS)
KPGRP [BP3],IC50,human ACE,486 ± 43.5 µM
KPVAAP [BP1],IC50,human ACE,59.2 ± 3.8 µM
TNF-α,IL-6 mRNA expression vs control,[1]; [10],increased
same,ICAM-1 mRNA expression vs control,[5],increased
same,ICAM-1 MFI,"[6]; 100 ng/mL TNF-α alone, six independent experiments, mean ± SD, p = 0.0003 vs control (71.36 ± 8.31)",1271.91 ± 158.54
same,ICAM-1 MFI on cell surface (in words),"[6]; TNF-α alone vs control, p = 0.0003",increase
same,VCAM-1 mRNA expression vs control,[7],increased
same,VCAM-1 surface staining after TNF-α,[8],undetected; also recorded: hardly detectable
same,eNOS mRNA expression vs control,[3]; [10],decreased
same,expression of 82–85 kDa protein corresponding to ICAM-1 (western blot),[9],induced
"Val-Pro-Pro [VPP, milk-derived peptide]",inflammatory markers (IL-6 and eNOS),[4],decrease in inflammatory markers (IL-6 and eNOS)
